Source: patent publication US20040110847A1, “Compounds extracted from Sap of Rhus succedanea” (priority 2002, published 2004)
≈ marks a conversion by molar mass, not a printed value.

Tests used:
HCT116 cells = experiment: Cytotoxicity, acid phosphatase assay, HCT116; assay type: cell-based, Human; details: 72 h; concentration of 50% growth inhibition
Method: (§1) (5). Determination of Cytotoxicity. Four human cancer cell lines, HeLa, Huh7, HCT116 and LoVo were used to assess cytotoxicity of the purified compounds. All the cell lines, except Huh7 cells,^14 were purchased from American Type Culture Collection. The cells were cultured in Dulbecco's modified Eagle medium (DMEM) supplemented with 10% fetal calf serum (FCS), 100 units/ml penicillin and […] streptomycin at 37° C. under 5% CO2. Cells were grown in a 96 well plate (2000 cells/well) with or without the addition of compounds 1, 2 or 3 for 72 h. An acid phosphatase assay^14,15 was then used to quantitate the viable cells. Briefly, after the media were aspirated, the cells were washed with phosphate buffer saline (PBS) and then incubated with 100 μl of 0.1M sodium acetate buffer containing 10 mM p-nitrophenyl phosphate and 0.1% Triton X-100, and incubated at 37° C. for 1 h. The reaction was stopped by the addition of 10 μl of 1 N NaOH and coloration of the cells was measured at 410 nm by an ELISA reader. The concentrations of 50% growth inhibition (IC50) were interpolated from dose-dependent growth inhibition curves. The data HeLa, Huh7, HCT116 and LoVo presented were the averages derived from a minimum of triplicate independent experiments.

[1] = Antioxidative potency (AOP), iron/ascorbate system with linoleic acid as substrate; assay type: biochemical; details: compared with BHT; FIG. 2; ca. 1, 4, 10 ppm; 37° C., 5 and 30 min
Method: (4). Determination of Antioxidative Activity: The procedure using an iron/ascorbate system reported by Yoon,^9 Chiou,^10 Decker,^11 Tamura,^12 and Sasaki^13 was modified. In a beaker (50 ml), 100 mg of linoleic acid, 1.0 g of Tween 20, and 20 ml of Tris-buffer (pH 7.4, 50 mM) were combined, gently shaken and emulsified with a sonicator for 2 min. An iron/ascorbate solution containing 30 μM FeCl3 and 200 μM ascorbic acid in the Tris-buffer (pH 7.4, 50 mM) was prepared daily. In a series of 1.5-ml microfuge tubes, 0.5 ml of the emulsified linoleic acid, 0.5 ml of the iron/ascorbate solution, and 0.1 ml of methanol containing various concentrations of the three compounds or BHT including 0, 10, 40 and 100 ppm (μg/ml) (resulting in ca. 0, 1, 4 and 10 ppm of concentration after combination) were deposited. Prior to incubation, the tubes were immersed and kept in an ice bath to minimize any reactions. To initiate reaction, the mixtures in the tubes were mixed by hand (gently to prevent foaming) and placed into the wells of a thermal block at 37° C. for 5 and 30 min. After incubation, the produced conjugated diene hydroperoxide (CDHP) contents were determined spectrophotometrically. […] The absorbance (A) at 234 nm of the mixture was measured. […] The percentage of AOP (capacity to inhibit peroxide formation in linoleic acid) was calculated as follows. […]

Lovo cells = experiment: Cytotoxicity, acid phosphatase assay, LoVo; assay type: cell-based, Human; details: 72 h; concentration of 50% growth inhibition
Method: as §1

Hela cells = experiment: Cytotoxicity, acid phosphatase assay, HeLa; assay type: cell-based, Human; details: 72 h; concentration of 50% growth inhibition
Method: as §1

Huh7 cells = experiment: Cytotoxicity, acid phosphatase assay, Huh7; assay type: cell-based, Human; details: 72 h; concentration of 50% growth inhibition
Method: as §1

[2] = test system: four human cancer cell lines (HeLa, Huh7, HCT116, LoVo); experiment: Cytotoxicity evaluation across four human cancer cell lines; assay type: cell-based
Method: as §1

| Compound | IC50 HCT116 cells (HCT116 cells) | antioxidative potency (AOP) [1] | IC50 Lovo cells (Lovo cells) | IC50 Hela cells (Hela cells) | IC50 Huh7 cells (Huh7 cells) | cytotoxic activity against four human cancer cell lines [2] |
| --- | --- | --- | --- | --- | --- | --- |
| C/C=C/C=C/C/C=C\CCCCCCCCCc1cc(O)ccc1O [Compound 1, 10′(Z),13′(E),15′(E)-heptadecatrienylhydroquinone] | 2.0 µg/mL (≈ 5.84 µM) | close to that of BHT | 4.5 µg/mL (≈ 13.1 µM) | 2.8 µg/mL (≈ 8.17 µM) | 3.9 µg/mL (≈ 11.4 µM) | significant cytotoxic activity |
| CCC/C=C/C/C=C\CCCCCCCCCc1cc(O)ccc1O [Compound 2, 10′(Z),13′(E)-heptadecadienylhydroquinone] | 3.5 µg/mL (≈ 10.2 µM) | close to that of BHT | 5.6 µg/mL (≈ 16.3 µM) | 4.6 µg/mL (≈ 13.4 µM) | 6.0 µg/mL (≈ 17.4 µM) | significant cytotoxic activity |
